This is an account of results in patent US11884675B2, “Heterocyclic compounds as triggering receptor expressed on myeloid cells 2 agonists and methods of use” (AMGEN INC., priority 2020, dated 2024).

The target of the experiment is hTREM2 (Homo sapiens, UniProt Q9NZC2). Description: TREM2 activity by cellular Syk phosphorylation (AlphaScreen/AlphaLISA) in TREM2/DAP12-HEK cells, used for Examples 1-305. On the set-up: expressed in transfected cells. Type of experiment: cell-based. As to conditions: HEK293 Cells. From the text:
In vitro Measurement of Triggering Receptor Expressed on Myeloid Cells 2 activity using cellular phosphorylation of Spleen Tyrosine Kinase (“Syk”) Assays used for Examples 1-305
Pharmacological measurements of TREM2 signaling through DAP12 were made with TREM2 and DAP12 overexpressing HEK293 cells stable cell lines that had been single-cell cloned (“TREM2/DAP12-HEK”). The readout of the TREM2 signaling utilized Perkin Elmer AlphaScreen/AlphaLISA technology monitoring the phosphorylation levels of the Syk kinase. TREM2/DAP12-HEK cell lines were cultured in DMEM-F12 (Corning 10-092-CM) supplemented with 1X Penicillin/Streptomycin (Corning 30-002-CI), 1X GlutaMAX (Gibco 35050-061), and 10% Fetal Bovine Serum (Life Technologies 10099) referred to as “HEK Culture Medium”. Suspensions of TREM2/DAP12-HEK cells were prepared in HEK Culture Medium and dispensed into 384-well poly-D-lysine coated microplates (Corning 354661) at a density of 20,000 cells/well using a Multidrop Combi peristaltic microplate dispenser (Thermo), 25 μL volume of cell suspension/well. Plates containing cells were then incubated for 20 hours in a humidified cell culture incubator at 37° C. with 5% CO2 (Thermo). After incubation, culture medium was removed from all wells of each microplate and replaced with 20 μL of “Assay Buffer” comprised of DMEM-F12 (Corning 10-092-CM) supplemented with 1X Penicillin/Streptomycin (Corning 30-002-CI) and 0.1% Pluronic F-68 Polyol (MP Biomedical 092750049) using a Bravo 384-well pipette-based liquid handling system (Agilent). Assay Buffer contained diluted test articles (in 1% final DMSO concentration for compounds) or 100 nM anti-human/mouse TREM2 antibody (R&D Systems MAB17291) as a positive control, or 100 nM or rat IgG2B isotype Ab as a negative control (R&D Systems MAB0061). The plates were incubated with test articles and controls for 45 minutes at room temperature and then the medium was aspirated/removed from each well of the plates. A Multidrop Combi peristaltic liquid handler (Thermo) was used to dispense 15 μL/well of “Cell Lysis Immunoassay Buffer”. The Cell Lysis Immunoassay Buffer contained M-PER Mammalian Protein Extraction Reagent (Pierce/ThermoFisher 78505), 1X Halt Phosphatase Inhibitor Cocktail (ThermoFisher #78427), 0.1875 nM anti-phospho-Syk (Tyr525/526) (C87C1) rabbit mAb (Cell Signaling Technologies catalog #2710), and 1.5 nM biotinylated Mouse anti-human Syk (4D10) antibody (BD Biosciences, catalog #624008). Plates were incubated for 1 hour at room temperature after the addition of the Cell Lysis Immunoassay Buffer. The Multidrop Combi liquid handler was used to dispense 15 μL of AlphaScreen Acceptor Bead Solution containing 7.5 μg/mL anti-rabbit IgG (Fc specific) AlphaLISA Acceptor Beads (Perkin Elmer AL104R) in 1X Immunoassay buffer (Perkin Elmer AL000F) to each well of the microplates. The plates were incubated for 2 hours at room temperature. Following the incubation with the AlphaLISA Acceptor Bead Solution, a Multidrop Combi liquid handler (Thermo) was used to dispense 15 μL of AlphaScreen Donor Bead Solution containing 30 μg/mL of AlphaScreen Streptavidin Donor beads (Perkin Elmer 6760002B) in 1X Immunoassay buffer (Perkin Elmer AL000F) to each well of the microplates. Microplates were incubated for 2 hours protected from light sources as the AlphaScreen reagents are light sensitive. Once the final incubation was completed, an AlphaScreen signal was acquired from the donor and acceptor beads using an Envision high throughput multi-modal microplate reader (Perkin Elmer) calibrated to the plate type with the AlphaScreen mirror and filter-set in 384-well mode, 680 nanometer excitation wavelength. The total measurement time per well was 550 milliseconds with a 180 millisecond excitation time. […]
For orientation: In Alpha technology, singlet oxygen from a donor bead excites a nearby acceptor bead.

hTREM2, sequence (Q9NZC2 19-230): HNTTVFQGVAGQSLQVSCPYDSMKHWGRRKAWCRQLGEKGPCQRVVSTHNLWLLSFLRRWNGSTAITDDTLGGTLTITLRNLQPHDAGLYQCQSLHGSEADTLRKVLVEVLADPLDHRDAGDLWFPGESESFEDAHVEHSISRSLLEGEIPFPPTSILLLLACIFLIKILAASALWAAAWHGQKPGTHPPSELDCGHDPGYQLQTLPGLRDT
hTREM2, sequence (O43914 22-113 partner): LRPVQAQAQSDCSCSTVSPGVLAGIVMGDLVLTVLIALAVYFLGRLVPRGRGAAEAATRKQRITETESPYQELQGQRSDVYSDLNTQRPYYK

With `Cc1nc2nc(N3CCO[C@@H](c4cnn(C)c4)C3)nc(N3CC(C(F)F)C3)c2nc1C` [Example 269, (S)-4-(4-(3-(difluoromethyl)azetidin-1-yl)-6,7-dimethylpteridin-2-yl)-2-(1-methyl-1H-pyrazol-4-yl)morpholine], the EC50 fell in the range of 3000 to 100000 nM; the “hTREM2 Emax” value was “+ (Emax>45 and ≤100)”.

Regarding `Cc1cnc2c(n1)nc(N1CCO[C@@H](c3cnn(C4CC4)c3)C1)nc2[C@H]1C[C@@H](C(F)(F)F)C1` [Example 12, 2-((2S)-2-(1-cyclopropyl-1H-pyrazol-4-yl)-4-morpholinyl)-7-methyl-4-(cis-3-(trifluoromethyl)cyclobutyl)pteridine], the concentration giving a half-maximal response (EC50) was in the range of 500 to 3000 nM; the “hTREM2 Emax” value is “++ (Emax>100 and ≤150)”.

Turning to `Cc1cc2c(nc(N3CCO[C@@H](c4cnn(C5CC5)c4)C3)nc2[C@H]2C[C@H](C(F)(F)F)C2)nc1C` [Example 113, 2-((2S)-2-(1-cyclopropyl-1H-pyrazol-4-yl)-4-morpholinyl)-6,7-dimethyl-4-(trans-3-(trifluoromethyl)cyclobutyl)pyrido[2,3-d]pyrimidine], the EC50 was not above 50 nM; the “hTREM2 Emax” value is “++ (Emax>100 and ≤150)”.

For `Cc1ccc(-c2nc([C@H]3CCO[C@@H](c4ccnc(C)c4)C3)nc3nc(C)c(C)cc23)c(F)c1` (single isomer, unassigned) [Example 222], the EC50 was not above 50 nM and the “hTREM2 Emax” value is recorded as “++++ (Emax>250)”.

Take `Cc1cc2c(-c3ccc(Cl)cc3F)nc([C@@H]3CCO[C@@H](c4cnn(C)c4)C3)nc2nc1C` (single isomer, unassigned) [Example 225]: the EC50 lay in the range of 50 to 500 nM; the “hTREM2 Emax” value is “+++ (Emax>150 and ≤250)”.

`Cc1ncc2c(-c3ccc(Cl)cc3F)cc(N3CCO[C@@H](c4cnn(C)c4)C3)cc2n1` [Example 153, 5-(4-chloro-2-fluorophenyl)-2-methyl-7-((2S)-2-(1-methyl-1H-pyrazol-4-yl)-4-morpholinyl) quinazoline]: the EC50 was 50 to 500 nM; the “hTREM2 Emax” value was “+++ (Emax>150 and ≤250)”.

Consider `Cc1ccc2c(n1)nc(N1CCO[C@@H](c3cnn(C4CC4)c3)C1)nc2[C@H]1CC[C@H](C(F)(F)F)CC1` [Example 145, 2-((2S)-2-(1-cyclopropyl-1H-pyrazol-4-yl)-4-morpholinyl)-7-methyl-4-(trans-4-(trifluoromethyl)cyclohexyl)pyrido [2,3-d]pyrimidine], for which the EC50 is not above 50 nM; the “hTREM2 Emax” value is “+ (Emax>45 and ≤100)”.

For the compound `Cc1cc([C@H]2CN(c3nc4nc(C)cnc4c([C@H]4C[C@H](C(F)(F)F)C4)n3)CCO2)cnn1` [Example 279, (S)-4-(7-methyl-4-((1r,3S)-3-(trifluoromethyl)cyclobutyl)pteridin-2-yl)-2-(6-methylpyridazin-4-yl)morpholine], the EC50 lay in the range of 500 to 3000 nM; the “hTREM2 Emax” value was “+++ (Emax>150 and ≤250)”.

With `Cc1cc([C@H]2CN(c3nc(C45CC(C(F)(F)F)(C4)C5)c4ncc(C)nc4n3)CCO2)ccn1` [Example 232, (S)-4-(7-methyl-4-(3-(trifluoromethyl)bicyclo[1.1.1]pentan-1-yl)pteridin-2-yl)-2-(2-methylpyridin-4-yl) morpholine], the EC50 was not above 50 nM; the “hTREM2 Emax” value was “++ (Emax>100 and ≤150)”.

Turning to `Cc1ccc2c(-c3ccc(F)cc3F)nc([C@H]3CCO[C@@H](c4cnn(C)c4)C3)nc2n1` [Example 289, 4-(2,4-difluorophenyl)-7-methyl-2-((2R,4S)-2-(1-methyl-1H-pyrazol-4-yl)tetrahydro-2H-pyran-4-yl)pyrido[2,3-d] pyrimidine], the EC50 lay within 3000 to 100000 nM; the “hTREM2 Emax” value is “++ (Emax>100 and ≤150)”.

For `CCc1ccc2c(-c3ccc(Cl)cc3F)nc(N3CCO[C@@H](c4cnn(C)c4)C3)cc2n1` [Example 238, (S)-4-(5-(4-chloro-2-fluorophenyl)-2-ethyl-1,6-naphthyridin-7-yl)-2-(1-methyl-1H-pyrazol-4-yl)morpholine], the EC50 was 3000 to 100000 nM; the “hTREM2 Emax” value was “+ (Emax>45 and ≤100)”.

In the case of `Cc1nc2nc(N3CCO[C@@H](c4cnn(C)c4)C3)nc(N3CCC[C@@H](F)C3)c2nc1C` (single isomer, unassigned) [Example 69], the EC50 lay in the range of 500 to 3000 nM; the “hTREM2 Emax” value is “+ (Emax>45 and ≤100)”.

For the compound `Cc1cc([C@H]2C[C@@H](c3nc(-c4ccc(Cl)cc4F)c4nc(C)c(C)nc4n3)CCO2)ccn1` (single isomer, unassigned) [Example 207], the EC50 was not above 50 nM; the “hTREM2 Emax” value was “+++ (Emax>150 and ≤250)”.

`Cc1nc2nc([C@@H]3CCO[C@H](c4cnn(C)c4)C3)nc(-c3ccc(Cl)cc3F)c2nc1C` (single isomer, unassigned) [Example 177]: the EC50 was in the range of 500 to 3000 nM; the “hTREM2 Emax” value is “+++ (Emax>150 and ≤250)”.

As for `Cc1nc2nc(N3CCO[C@@H](c4cnn(C)c4)C3)nc(-c3ccc(C(F)(F)F)cc3F)c2nc1C` [Example 17, 4-(2-fluoro-4-(trifluoromethyl)phenyl)-6,7-dimethyl-2-((2S)-2-(1-methyl-1H-pyrazol-4-yl)-4-morpholinyl)pteridine], the EC50 is not above 50 nM and the “hTREM2 Emax” value is on record as “++++ (Emax>250)”.

Turning to `Cc1cnc2c(-c3ccc(F)cc3F)nc(N3CCO[C@@H](c4cnn(C)c4)C3)nc2n1` [Example 6, 4-(2,4-difluorophenyl)-7-methyl-2-((2S)-2-(1-methyl-1H-pyrazol-4-yl)-4-morpholinyl)pteridine], the EC50 is 50 to 500 nM; the “hTREM2 Emax” value was “+++ (Emax>150 and ≤250)”.

Turning to `Cc1cc([C@H]2CN(c3cc(-c4ccc(F)cc4F)c4cnc(C)nc4c3)CCO2)ccn1` [Example 154, 5-(2,4-difluorophenyl)-2-methyl-7-((2S)-2-(2-methyl-4-pyridinyl)-4-morpholinyl) quinazoline], the EC50 was in the range of 50 to 500 nM and the “hTREM2 Emax” value is listed as “++++ (Emax>250)”.

For `Cc1nc2cc(N3CCO[C@@H](c4cnn(C)c4)C3)nc([C@H]3C[C@H](C(F)(F)F)C3)c2nc1C` [Example 80, 2,3-dimethyl-7-((2S)-2-(1-methyl-1H-pyrazol-4-yl)-4-morpholinyl)-5-(trans-3-(trifluoromethyl)cyclobutyl)pyrido[3,4-b]pyrazine], the EC50 was 50 to 500 nM; the “hTREM2 Emax” value is “++ (Emax>100 and ≤150)”.

Regarding `Cc1nc2nc(N3CCO[C@@H](c4cnn(C)c4)C3)nc([C@H]3CCC(C)(C)C3)c2nc1C` [Example 302, (S)-4-(4-((S)-3,3-dimethylcyclopentyl)-6,7-dimethylpteridin-2-yl)-2-(1-methyl-1H-pyrazol-4-yl)morpholine], the EC50 fell in the range of 50 to 500 nM; the “hTREM2 Emax” value was “+ (Emax>45 and ≤100)”.

`COc1cc([C@H]2C[C@@H](c3nc(-c4ccc(Cl)cc4F)c4nc(C)c(C)nc4n3)CCO2)ccn1` (single isomer, unassigned) [Example 208]: the EC50 is not above 50 nM; the “hTREM2 Emax” value is “+++ (Emax>150 and ≤250)”.

Consider `Cc1ccc(-c2cc([C@H]3CCO[C@@H](c4cnn(C)c4)C3)nc3nc(C)c(C)nc23)c(F)c1` (single isomer, unassigned) [Example 190], for which the EC50 was not above 50 nM; the “hTREM2 Emax” value is “+++ (Emax>150 and ≤250)”.

As for `Cc1ccc(-c2nc(N3CCO[C@@H](c4cnn(C5CC5)c4)C3)nc3nc(C)ccc23)c(F)c1` [Example 95, 2-((2S)-2-(1-cyclopropyl-1H-pyrazol-4-yl)-4-morpholinyl)-4-(2-fluoro-4-methylphenyl)-7-methylpyrido[2,3-d]pyrimidine], the EC50 is not above 50 nM; the “hTREM2 Emax” value is “+++ (Emax>150 and ≤250)”.

The EC50 is the concentration that produces a half-maximal response. A high value points to lower potency in that assay.
